Laboratory results published in patent US20220370546A1, “PEPTIDE, COMPOSITION, AND METHOD FOR TREATING, PREVENTING, OR AMELIORATING MOOD DISORDER” (KYOTO UNIVERSITY, priority 2019, published 2022).

Test system: ddY mice
Assay: Tail suspension test (evaluation of motivation-enhancing effect)
Format: in vivo
Conditions: oral, in saline, n=5; 0.2 μmol/kg body weight; tail suspension test 30 minutes after administration
Procedure: Each of the prepared peptides was administered to mice (ddY mice (5-week-old male mice 24 to 28 g in body weight)) by the method shown below. The mice were then subjected to a tail suspension test for the evaluation of a motivation-enhancing effect.
Each peptide was dissolved in saline. The solution was orally administered to mice (n=5) such that each of peptides 3, 4, and 8 was administered in a dose of 0.3 mg/kg body weight and each of peptides 1, 2, 5, 6, and 7 was administered in a dose of 0.2 μmol/kg body weight. Control mice (n=5) were orally administered with only saline. Each of the mice was subjected to a tail suspension test in which the peptide of the present invention was evaluated for its efficacy to enhance motivation.
Thirty minutes after the administration of the peptide, each mouse was suspended with its tail fixed 30 cm above the floor. Subsequently, during a period of 6 minutes from the start of the test (0 minutes), the time (immobility time) during which the mouse remained in a motionless state, observed after the start of escape behavior, was measured, and the measurements were averaged. The motionless state is known as “despair state”. […] This means that materials effective in enhancing motivation in this test may be effective in treating, preventing, or ameliorating mood disorders. […]

| Substance | motivation-enhancing effect |
| --- | --- |
| SQK [Peptide 2] | particularly high level of motivation-enhancing effect |
| QSQ [Peptide 1] | particularly high level of motivation-enhancing effect |
